The numbers were not newly measured in patent US8307894B2, “Composition and method for inhibiting the deleterious effects of sulfate reducing bacteria” (priority 2009, dated 2012), which cites them from elsewhere.

Data set [1] relates to sulfate reducing bacteria. Conditions: government study (12/04).
The test system of data set [2] is insects and aquatic life including fish.
Assay in data set [3]: not given
The source holds these as a separate data set.

Where two headings read alike, the source gives them in different places.

Consider `[O]=[Mo](=[O])([O-])[O-]` [molybdate], for which the “inhibition of sulfate reducing bacteria” value in data set [1] is listed as “possible candidates as inhibitors”.

Consider `C=C(C)[C@H]1Cc2c(ccc3c2O[C@@H]2COc4cc(OC)c(OC)cc4[C@@H]2C3=O)O1` [rotenone], for which the toxicity result in data set [2] is on record as “extremely toxic”; in the data set on humans and other mammals, “mildly toxic”. Further, the “lifetime in the environment” value (breaks down when exposed to sunlight) was “six”. Further, for the setting “in water”, the persistence in water result is on record as “six”. In addition, the Solubility result was “slightly soluble” in data set [3] (in ethanol); “Soluble” in data set [3] (in ether and acetone).
